Assay results as given in PMC7029632, “Routing Nanomolar Protein Cargoes to Lipid Raft‐Mediated/Caveolar Endocytosis through a Ganglioside GM1‐Specific Recognition Tag” (Advanced Science, 2020).

Columns and labels:
[1] = cited from earlier work
Source text: Helenius and Pelkmans pointed out that multivalent binding/clustering of ganglioside GM1 is necessary to trigger lipid raft‐mediated/caveolar endocytosis,9 and the tetravalent nature of our model carrier–cargo complex is consistent with this observation. On the other hand, the number of copies of the carrier sequence required for endocytosis can be crucial, especially if the carrier–cargo complex is produced by recombinant synthesis. […] CFU‐Penetratin, which has ...

Jurkat cells = assay: Uptake in competition with galectin-1, flow cytometry; assay type: cell-based, human; conditions: only at concentrations orders of magnitude higher than serum galectin-1 level (6.7 nM)
ganglioside GM1 = assay: ITC titration with GM1:DPC 1:5 bicelles; conditions: two-independent-binding-site model, pH 7.2 phosphate, 35 °C, read-out: K D toward GM1 (tagged NeutrAvidin)
HeLa cells = assay: Flow cytometry (FACS) uptake of NA constructs and fluorescently labeled sequences, HeLa; conditions: 1 µM cargo, 1 h, 37 °C, MEM+1% FBS, trypan blue quencher, triplicate

| Substance | affinity for terminal digalactosides [1] | inhibition of GM1–WYKYW interaction by galectin-1 (Jurkat cells) | Kd (ganglioside GM1) [nM] | level of uptake by FACS (HeLa cells) |
| --- | --- | --- | --- | --- |
| galectin‐1: protein binding terminal digalactosides, used as inhibitor | micromolar affinity | competitive inhibitor of the GM1–WYKYW interaction | – | – |
| NA(biotinyl‐PEG‐WYKYW)4 | – | – | 14.5 ± 1.7 | similar |
